Measured values: patent US6861223B2, “Ribozyme-encoding DNA and a composition containing an oligonucleotide substrate and a method for measuring transcription rates” (priority 1998, dated 2005)
{FAM} = fluorescein (FAM) reporter dye; {TAMRA} = TAMRA quencher dye

Legend:
FRET substrate (SL1) = experiment: Real time FRET measurement of ribozyme cleavage activity (HHR1 with substrate SL1); assay type: biochemical; details: HHR1 4 nM, 37° C.; SL1 vs S1 (conventional gel/autoradiography method)
Excerpt: As the increase in fluorescence is directly correlated to the cleavage rate, the system is suitable for a sensitive, non-radioactive and fast analysis of ribozyme activities. A FRET substrate (SLI) was constructed on the basis of a known HHR/substrate complex (M. Fedor, O. C. Uhlenbeck, Proc. Natl. Acad. Sci. USA (1990), 87, 1668-1672) and was used for a time-dependent measurement of ribozyme activity (HHR1). […] The Michaelis-Menten parameter of HHR can be obtained in a single experiment by measurement of the cleavage-caused rise in fluorescence at different substrate concentrations.
In order to find out whether the method is suitable for the fast characterization of ribozymes, the activity was measured in parallel batches while various physico-chemical parameters were modified.
FIGS. 3b-d show the dependency of the reaction rate on the pH value, the temperature and the Mg^2+ concentration. […]
Characterization of the cleavage activity at 4 nM HHR1 and 200 or 300 nM SL1. (a) Time-dependent course of cleavage with the reciprocally exponential regression curve (only 1% of all data points measured are depicted). […] (0.0134 nM^−1 min^−1) were also determined.
The real time measurements of the rise in fluorescence caused by the ribozyme were taken in 50 μl reaction batches. The signal measured comprises both the chemical step of cleavage and the release of the cleavage products. […]

substrate RNA SL1 = experiment: Real time measurement of fluorescence at cleavage of SL1 by HHR1 transcribed in vitro with T7-RNA polymerase; assay type: biochemical; details: 900 nM SL1, 37° C., 535 nm, T7 in-vitro transcription
Description: A typical 50 μl reaction batch contained: 40 mM tris HCl, pH 8.0, 50 mM NaCl, 2 mM spermidin, 5 mM dithiothreitol, 5 to 25 mM MgCl2, about 500 nM SL1, 0.2 to 2 μM HHR1-DNA or HHR1mut-DNA, 4mM A/C/G/UTP and 50 units of T7-RNA-polymerase. […] In-vitro transcription was started by the addition of the polymerase, and incubation was carried out at 37° C. while the measurement was taken. • 3. Real Time Measurement of Fluorescence at Cleavage of SL1 by HHR1:
The fluorescence of the transcription batches was measured in an automated manner in an ABI Prism 770 spectrometer (Applied Biosystems, USA), the temperature of which could be adjusted. The spectra in the emission wavelength range of the two dyes (FAM, λmax=518 nm and TAMRA, λmax=582 nm) were recorded in intervals of 7 seconds (excitation energy=488 nm). After an incubation time of 3 hours, the collected data were evaluated by the software contained in the equipment. For a real time control of the individual transcriptions, the fluorescence spectra (range of 500 nm to 660 nm) were projected time-dependently over the spectrum of the reference transcription (with non-functional HHR1mut DNA).

Substance: 5′-FAM-ACG AGU CAG GAU U-TAMRA-3′ (ACGAGUCAGGAUU; RNA, 5' {FAM}, 3' {TAMRA}, backbone not given here) [SL1, 5′-FAM and 3′-TAMRA labeled substrate RNA (FRET substrate)]
- Kcat and KM values of FRET substrate compared with 32P labeled substrate S1 (FRET substrate (SL1)): in the same order of magnitude

Substance: 5′-TCT AAT ACG ACT CAC TAT A GGGTCCTCTGATGAGGCCGTTAGGCCGAAACTCGT-3′ [HHR1-DNA]
- relative fluorescence ΔRn of the fluorophore / fluorescence signal (substrate RNA SL1): increased with the incubation times

Substance: 5′-TCT AAT ACG ACT CAC TAT A GGGTCCTCTTAGGAGGCCGTTAGGCCAGAACTCGT-3′ [HHR1mut, reference compound]
- relative fluorescence ΔRn of the fluorophore / fluorescence signal (substrate RNA SL1): no influence
